Patent publication US11312722B2, “Hsp90 inhibitors and uses thereof” (TRUSTEES OF BOSTON UNIVERSITY, priority 2019, dated 2022)

Tests used:
[1] = system: Hsp90 (C. neoformans whole cell lysate); assay type: binding; details: for C. neo Selectivity (FS): C. neo FS calculated using EC50
Protocol: (§1) All analogs were assessed for Hsp90 binding affinity using a fluorescence polarization (FP)-based equilibrium competition assay in fungal and human whole cell lysates. […] Using lysates, the relative potency and selectivity for fungal Hsp90 was measured versus the entire ensemble of human Hsp90 isoforms in microplate format using small amounts of test materials. […] Thermal shift assays were performed under saturating ligand conditions, i.e. equimolar concentrations (10 μM) of protein and ligand. As a result, they provided qualitative evidence of target binding, but not a quantitative measurement of ligand affinity. For quantitation, a ligand dissociation constant (Ki) for key compounds was also determined using purified NBDs in FP assays and KD measurements were made by surface plasmon resonance (SPR) using a Biacore instrument. Finally, all analogs were assessed for whole cell antifungal activity against the pathogens C. albicans and C. neoformans.
(§2) FP assays. Whole cell lysates were prepared for FP assays as described previously. Total protein concentration of human and yeast lysates was determined by Bradford assay. […] Serial dilutions of test Hsp90 inhibitors were then assayed under these same conditions to monitor loss of fluorescence polarization as an indicator of probe displacement from Hsp90. […] Titrations of test compound in 25 μL of binding buffer (supplemented with 0.1 mg/mL bovine gamma globulin), were mixed with an equal volume of freshly prepared whole-cell lysate spiked with Cy3-GdA (0.1 nM). Plates were incubated at room temperature for 4.5 h to achieve equilibrium binding for the geldanamycin-based probe. […] Non-linear 4-parameter curve fitting of raw displacement data was performed in GraphPad Prism 5.0 to determine EC50 values as a measure of relative Hsp90-binding affinity. Results were normalized to the value determined for GdA in lysate of each cell type.
(§3) Statistical methods. […] In calculating the error of selectivity determinations, the fractional error of measurements in each species was summed to yield a composite error for the derived ratio.

[2] = target: Hsp90 (C. neoformans whole cell lysate) (Cryptococcus neoformans, UniProt J9VVA4); assay type: binding; details: for EC50: read-out: C. neo EC50; for C. neo Active (biochemical): Yes/No call
Protocol: as §1, §2, §3

[3] = target: Hsp90 (C. albicans whole cell lysate) (Candida albicans (strain SC5314 / ATCC MYA-2876) (Yeast), UniProt P46598); test: biochemical; assay type: binding; details: for C. alb Active (biochemical): Yes/No call; for EC50: read-out: C. alb EC50
Protocol: as §1, §2, §3

[4] = system: Hsp90 (C. albicans whole cell lysate); test: biochemical; assay type: binding; details: for C. alb Selective: Yes/No call
Protocol: as §1, §2, §3

[5] = system: C. neoformans (Strain H99); test: Antifungal sensitivity testing (MIC), C. neoformans H99; assay type: cell-based; details: for MIC80 / MIC90: Cryptococcus neoformans; for MIC80: read-out: C. neo MIC80; for MIC90: read-out: C. neo MIC90; for C. neo Active (cells): Yes/No call
Protocol: Color scale bar: no growth inhibition (green) to complete inhibition (black). Each shaded box represents the mean of technical duplicates. The experiment was repeated as an independent biological replicate to confirm results.
Minimum inhibitory concentration (MIC) value for compounds against C. neoformans (Strain H99) was determined in dose-response format, in technical duplicate. Experiments were conducted in RPMI medium at 37° C. for 48 h. Relative viable cell number was measured by standard dye reduction (resazurin) assay.
Yeast strains and culture conditions. Strains used in this study were C. albicans CaCi2 (clinical isolate 2), [58] SC5314, [59] and C. neoformans H99. […] Active cultures were maintained on solid (2% agar) yeast extract peptone (YPD, 1% yeast extract, 2% bactopeptone, 2% glucose) at 4° C. for no more than one month.
Antifungal sensitivity testing. […] Each compound was tested in duplicate in at least two independent experiments. […] Plates were photographed after 24 h of incubation at 30° C.

in vitro = details: both, CD-1, mouse, liver microsomes
[6] = mouse liver microsomes

Hsp90 (C. neoformans whole cell lysate) (Cryptococcus neoformans, UniProt J9VVA4), sequence (J9VVA4 1-699): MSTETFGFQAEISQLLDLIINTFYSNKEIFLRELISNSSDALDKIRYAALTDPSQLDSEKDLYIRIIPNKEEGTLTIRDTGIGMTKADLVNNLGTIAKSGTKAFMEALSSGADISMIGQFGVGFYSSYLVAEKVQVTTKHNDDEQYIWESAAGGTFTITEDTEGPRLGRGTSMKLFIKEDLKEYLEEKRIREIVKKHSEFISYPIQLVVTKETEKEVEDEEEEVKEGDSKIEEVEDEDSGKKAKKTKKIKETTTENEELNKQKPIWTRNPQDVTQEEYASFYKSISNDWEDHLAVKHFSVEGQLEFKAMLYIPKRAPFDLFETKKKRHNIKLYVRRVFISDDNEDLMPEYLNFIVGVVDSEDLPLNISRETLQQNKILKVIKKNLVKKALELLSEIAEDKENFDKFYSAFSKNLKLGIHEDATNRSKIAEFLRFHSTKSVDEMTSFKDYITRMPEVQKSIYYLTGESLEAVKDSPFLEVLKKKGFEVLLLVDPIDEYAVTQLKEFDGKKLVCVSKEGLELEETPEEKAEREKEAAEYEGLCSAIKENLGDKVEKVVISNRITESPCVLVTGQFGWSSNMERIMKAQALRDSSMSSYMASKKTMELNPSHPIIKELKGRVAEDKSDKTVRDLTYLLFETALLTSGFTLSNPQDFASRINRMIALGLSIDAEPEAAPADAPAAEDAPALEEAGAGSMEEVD

| MIC80 [5] | MIC90 [5] | CLint scaled at 1 μM (in vitro) | half-life at 1 μM (in vitro) | % remaining at 15 min (NADPH-free) ([6]; NADPH-free control) | % remaining at 15 min ([6]; with NADPH) | % remaining at 60 min ([6]; with NADPH) | SMILES | C. neo Selectivity (FS) [1] | EC50 [2] | C. alb Active (biochemical) [3] | EC50 [3] | C. alb Selectivity (FS) [4] | C. alb Selective [4] | C. neo MIC80 [5] | C. neo MIC90 [5] | C. neo selective ([1]; Yes/No call) | C. neo Active (biochemical) [2] | C. neo Active (cells) [5] |
| --- | --- | --- | --- | --- | --- | --- | --- | --- | --- | --- | --- | --- | --- | --- | --- | --- | --- | --- |
| – | – | – | – | – | – | – | Cn1nc(-c2ccccc2C(F)(F)F)cc1Nc1cc(O)cc(O)c1C(=O)N1Cc2ccncc2C1 [ACSM01491] | 62.2 | 47 nM | Yes | 724 nM | 3.9 | No | >25 µM | >25 µM | – | – | – |
| – | – | – | – | – | – | – | O=C(O)Cn1nc(-c2ccccc2)cc1Nc1cc(O)cc(O)c1C(=O)N1Cc2ccccc2C1 [ACSM01476] | 5.8 | 537 nM | Yes | 2120 nM | 1.4 | No | >25 µM | >25 µM | – | – | – |
| – | – | – | – | – | – | – | COc1cccc(-c2cc(Nc3cc(O)cc(O)c3C(=O)N3Cc4ccc(N5CCN(C)CC5)cc4C3)n(C)n2)c1 [ACSM01375] | 9.6 | 1240 nM | No | > 10000 nM | – | No | >25 µM | >25 µM | – | – | – |
| – | – | – | – | – | – | – | COc1cccc(-c2cc(Nc3cc(O)cc(O)c3C(=O)N3Cc4ccncc4C3)n(C)n2)c1 [ACSM01492] | 46.2 | 258 nM | Yes | 10600 nM | 1.1 | No | >25 µM | >25 µM | – | – | – |
| – | – | – | – | – | – | – | Cc1cccc(-c2cc(Nc3cc(O)cc(O)c3C(=O)N3Cc4ccc(N5CCOCC5)cc4C3)n(C)n2)c1 [ACSM01280] | 6 | 2000 nM | No | > 10000 nM | – | No | >25 µM | >25 µM | – | – | – |
| – | – | – | – | – | – | – | COc1ccc(Cn2nc(-c3ccccc3)cc2Nc2cc(O)cc(O)c2C(=O)N2Cc3ccncc3C2)cc1 [BUCMD00433] | 13 | 75 nM | Yes | 11 nM | 31 | Yes | >25 µM | >25 µM | Yes | Yes | No |
| – | – | – | – | – | – | – | CN1CCN(c2ccc3c(c2)CN(C(=O)c2c(O)cc(O)cc2Nc2cc(-c4cccc(C(F)(F)F)c4)nn2C)C3)CC1 [ACSM01487] | 50.1 | 55 nM | Yes | 1160 nM | 2.3 | No | >25 µM | >25 µM | – | – | – |
| > 25 µM | > 25 µM | – | – | – | – | – | COc1ccc(Cn2nc(-c3ccccc3)cc2Nc2cc(O)cc(O)c2C(=O)N2Cc3cccnc3C2)cc1 [Compound 23, 5-((1-((4-Methoxyphenyl)methyl)-3-phenyl-1H-pyrazol-5-yl)amino)-4-(5H,6H,7H-pyrrolo[3,4-b]pyridine-6-carbonyl)benzene-1,3-diol] | – | – | – | – | – | – | – | – | – | Yes | No |
| – | – | – | – | – | – | – | Cn1nccc1Nc1cc(O)cc(O)c1C(=O)N1CC2CC2C1 (stereo not drawn) [ACSM01301] | 5 | 2400 nM | No | > 10000 nM | – | No | >25 µM | >25 µM | – | – | – |
| – | – | – | – | – | – | – | Cc1cccc(-c2cc(Nc3cc(O)cc(O)c3C(=O)N3Cc4ccc(N5CCN(C)CC5)cc4C3)n(C)n2)c1 [ACSM01279] | 18.3 | 449 nM | Yes | 2150 nM | 3.7 | No | >25 µM | >25 µM | – | – | – |
| – | – | 1990 mL/min/kg | 2.7 min | 103.6% | 2.3% | 0% | Cn1nc(C2CCCCC2)cc1Nc1cc(O)cc(O)c1C(=O)N1Cc2cn[nH]c2C1 [Compound 105, 5-((3-Cyclohexyl-1-methyl-1H-pyrazol-5-yl)amino)-4-(1H,4H,5H,6H-pyrrolo[3,4-c]pyrazole-5-carbonyl)benzene-1,3-diol] | – | – | – | – | – | – | – | – | – | – | – |
| – | – | – | – | – | – | – | COc1ccccc1-c1cc(Nc2cc(O)cc(O)c2C(=O)N2CC[C@H](N)C2)n(C)n1 [ACSM01271] | – | – | Yes | 5340 nM | – | – | >25 µM | >25 µM | – | – | – |
| > 25 µM | > 25 µM | – | – | – | – | – | Cc1ccc(-c2cc(Nc3cc(O)cc(O)c3C(=O)N3Cc4cccnc4C3)n(C)n2)cc1 [Compound 119, 5-((1-Methyl-3-(4-methylphenyl)-1H-pyrazol-5-yl)amino)-4-(5H,6H,7H-pyrrolo[3,4-b]pyridine-6-carbonyl)benzene-1,3-diol] | – | – | Yes | – | – | – | – | – | – | – | – |
| > 25 µM | > 25 µM | – | – | – | – | – | Cc1ccccc1-c1cc(Nc2cc(O)cc(O)c2C(=O)N2Cc3cn[nH]c3C2)n(C)n1 [Compound 108, 5-((1-Methyl-3-(2-methylphenyl)-1H-pyrazol-5-yl)amino)-4-(1H,4H,5H,6H-pyrrolo[3,4-c]pyrazole-5-carbonyl)benzene-1,3-diol] | – | – | Yes | – | – | – | – | – | – | – | – |
| > 25 µM | > 25 µM | – | – | – | – | – | Cn1nccc1Nc1cc(O)cc(O)c1C(=O)N1Cc2cn[nH]c2C1 [Compound 58, 5-((1-Methyl-1H-pyrazol-5-yl)amino)-4-(1H,4H,5H,6H-pyrrolo[3,4-c]pyrazole-5-carbonyl)benzene-1,3-diol] | – | – | Yes | – | – | – | – | – | – | – | – |
| – | – | – | – | – | – | – | O=C(c1c(O)cc(O)cc1Nc1cc(-c2ccccc2)nn1-c1ccccc1)N1Cc2ccccc2C1 [ACSM01305] | 8.1 | 577 nM | Yes | 1890 nM | 0.9 | No | 6.25 µM | 3 µM | – | – | – |

| SMILES | MIC80 [5] | MIC90 [5] | CLint scaled at 1 μM (in vitro) | half-life at 1 μM (in vitro) | % remaining at 15 min (NADPH-free) ([6]; NADPH-free control) | % remaining at 15 min ([6]; with NADPH) | % remaining at 60 min ([6]; with NADPH) | C. neo Selectivity (FS) [1] | EC50 [2] | C. alb Active (biochemical) [3] | EC50 [3] | C. alb Selectivity (FS) [4] | C. alb Selective [4] | C. neo MIC80 [5] | C. neo MIC90 [5] | C. neo selective ([1]; Yes/No call) | C. neo Active (biochemical) [2] | C. neo Active (cells) [5] |
| --- | --- | --- | --- | --- | --- | --- | --- | --- | --- | --- | --- | --- | --- | --- | --- | --- | --- | --- |
| Cc1cccc(-n2nc(C)c(Nc3cc(O)cc(O)c3C(=O)N3Cc4ccccc4C3)c2C)c1 [ACSM01486, (2-((3,5-Dimethyl-1-(m-tolyl)-1H-pyrazol-4-yl)amino)-4,6-dihydroxyphenyl)(isoindolin-2-yl)methanone] | > 25 µM | > 25 µM | – | – | – | – | – | 43.4 | 34 nM | Yes | 2060 nM | 0.7 | No | – | – | – | – | – |
| COc1ccccc1-n1nc(C)c(Nc2cc(O)cc(O)c2C(=O)N2Cc3ccccc3C2)c1C [ACSM01493, (2,4-Dihydroxy-6-((1-(2-methoxyphenyl)-3,5-dimethyl-1H-pyrazol-4-yl)amino)phenyl)(isoindolin-2-yl)methanone] | > 25 µM | > 25 µM | – | – | – | – | – | 7.2 | 191 nM | Yes | 1060 nM | 1.2 | No | – | – | – | – | – |
| Cc1nn(-c2cccc(C(F)(F)F)c2)c(C)c1Nc1cc(O)cc(O)c1C(=O)N1Cc2ccccc2C1 [ACSM01494, (2-((3,5-Dimethyl-1-(3-(trifluoromethyl)phenyl)-1H-pyrazol-4-yl)amino)-4,6-dihydroxyphenyl)(isoindolin-2-yl)methanone] | > 25 µM | > 25 µM | – | – | – | – | – | 97.7 | 30 nM | Yes | 1590 nM | 1.8 | No | – | – | – | – | – |
